For 23 compounds, IC50 results are on record in patent US9765092B2, “Tricyclic piperidine compounds” (ACTELION PHARMACEUTICALS LTD, priority 2013, dated 2017).

Molecules are shown by their SMILES.

This assay concerns the target human TPH1 (Homo sapiens (Human), UniProt P17752). Nature of the assay: Biochemical in vitro assay using fluorescence readout (TPH1 inhibition).
The mark [1] stands for this setting: human TPH1, fluorescence readout.
Setting [2] is: full length human TPH1, 40 μM L-tryptophan, 15° C., 60 minutes, fluorescence at 540 nm, mean if determined several times.

human TPH1, sequence (P17752 whole entry): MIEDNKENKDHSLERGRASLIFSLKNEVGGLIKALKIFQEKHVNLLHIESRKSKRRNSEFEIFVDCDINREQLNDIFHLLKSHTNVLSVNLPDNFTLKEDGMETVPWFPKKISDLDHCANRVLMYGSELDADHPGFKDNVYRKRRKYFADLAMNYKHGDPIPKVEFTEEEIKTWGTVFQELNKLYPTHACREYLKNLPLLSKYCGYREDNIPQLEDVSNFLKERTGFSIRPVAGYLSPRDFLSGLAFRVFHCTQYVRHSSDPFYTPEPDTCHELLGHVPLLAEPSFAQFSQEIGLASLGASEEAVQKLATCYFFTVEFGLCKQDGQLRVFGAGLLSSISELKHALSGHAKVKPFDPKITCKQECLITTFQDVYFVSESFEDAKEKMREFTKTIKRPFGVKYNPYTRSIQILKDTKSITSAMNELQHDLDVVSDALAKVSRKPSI

The IC50 is the concentration that gives 50% inhibition. The low end stands for greater potency in that assay, the high end for weaker potency in that assay. With `CCc1ncccc1OCC(=O)N1CCc2nc3sccn3c2C1c1ccc(Cl)cc1F` (centres unmarked) [Example 6.4.7, 1-(5-(4-chloro-2-fluorophenyl)-7,8-dihydrothiazolo-[2′,3′:2,3]imidazo[4,5-c]pyridin-6(5H)-yl)-2-((2-ethylpyridin-3-yl)oxy)ethanone], the IC50 under setting [1] was determined as 6 nM.

`Cc1ncc(C2c3c(nc4sc(C)nn34)CCN2C(=O)COc2ccc(C(=O)N(C)C)nc2Cl)s1` (centres unmarked) [Example 1.59.1, 6-chloro-N,N-dimethyl-5-(2-(2-methyl-5-(2-methylthiazol-5-yl)-7,8-dihydro-[1,3,4]thiadiazolo[2′,3′:2,3]imidazo[4,5-c]pyridin-6(5H)-yl)-2-oxoethoxy)picolinamide] returned an IC50 under setting [1] of 37 nM.

With `Cc1cnc([C@H]2c3c(nc4sc(C)nn34)CCN2C(=O)COc2ccc(C3(N(C)C)CC3)nc2Cl)c(F)c1` [Example 1.31.12, (R)-2-((2-chloro-6-(1-(dimethylamino)cyclopropyl)pyridin-3-yl)oxy)-1-(5-(3-fluoro-5-methylpyridin-2-yl)-2-methyl-7,8-dihydro-[1,3,4]thiadiazolo[2′,3′:2,3]imidazo[4,5-c]pyridin-6(5H)-yl)ethanone], under setting [1], the 50% inhibitory concentration (IC50) was found to be 217 nM.

Under setting [1], `Cc1nn2c3c(nc2s1)CCN(C(=O)COc1ccc(N(C)CC(F)(F)F)nc1Cl)C3c1ccc(Cl)cc1F` (centres unmarked) [Example 1.4.38, 1-(5-(4-chloro-2-fluorophenyl)-2-methyl-7,8-dihydro-[1,3,4]thiadiazolo[2′,3′:2,3]imidazo[4,5-c]pyridin-6(5H)-yl)-2-((2-chloro-6-(methyl(2,2,2-trifluoroethyl)amino)pyridin-3-yl)oxy)ethanone] showed an IC50 of 3 nM.

`CCc1nc(N2CCCS2(=O)=O)ccc1OCC(=O)N1CCc2nc3sc(C(F)(F)F)nn3c2C1c1ncc(C)cc1F` (centres unmarked) [Example 5.2.1, 2-((6-(1,1-dioxidoisothiazolidin-2-yl)-2-ethylpyridin-3-yl)oxy)-1-(5-(3-fluoro-5-methylpyridin-2-yl)-2-(trifluoromethyl)-7,8-dihydro-[1,3,4]thiadiazolo[2′,3′:2,3]imidazo[4,5-c]pyridin-6(5H)-yl)ethanone] had an IC50 under setting [1] of 13 nM.

The compound `CNC(=O)c1ccc(OCC(=O)N2CCc3nc4sc(C)nn4c3C2c2sccc2F)c(Cl)n1` (centres unmarked) [Example 1.23.10, 6-chloro-5-(2-(5-(3-fluorothiophen-2-yl)-2-methyl-7,8-dihydro-[1,3,4]thiadiazolo[2′,3′:2,3]imidazo[4,5-c]pyridin-6(5H)-yl)-2-oxoethoxy)-N-methylpicolinamide] gave an IC50 under setting [1] of 9 nM.

`Cc1nn2c3c(nc2s1)CCN(C(=O)COc1ccc(N2C[C@@H](C)C[C@H](C)C2)nc1Cl)C3c1ccc(Cl)cc1F` (stereo partly drawn) [Example 1.4.20, 1-(5-(4-Chloro-2-fluorophenyl)-2-methyl-7,8-dihydro-[1,3,4]thiadiazolo[2′,3′:2,3]imidazo[4,5-c]pyridin-6(5H)-yl)-2-((2-chloro-6-((3S,5S)-3,5-dimethylpipe-ridin-1-yl)pyridin-3-yl)oxy)ethanone] came in with an IC50 under setting [2] of 3 nM.

`Cc1nn2c3c(nc2s1)CCN(C(=O)COc1ccc(N(C)C)nc1Cl)C3c1cnc(N2CCOCC2)s1` (centres unmarked) [Example 1.7.4, 2-((2-chloro-6-(dimethylamino)pyridin-3-yl)oxy)-1-(2-methyl-5-(2-morpholinothiazol-5-yl)-7,8-dihydro-[1,3,4]thiadiazolo[2′,3′:2,3]imidazo[4,5-c]pyridin-6(5H)-yl)ethanone] yielded an IC50 under setting [1] of 408 nM.

Consider `Cc1nn2c3c(nc2s1)CCN(C(=O)COc1ccc(N2CCOCC2)nc1Cl)C3c1ccc(C(=O)N(C)C)o1` (centres unmarked) [Example 1.40.2, 5-(6-(2-((2-Chloro-6-morpholinopyridin-3-yl)oxy)acetyl)-2-methyl-5,6,7,8-tetrahydro-[1,3,4]thiadiazolo[2′,3′:2,3]imidazo[4,5-c]pyridin-5-yl)-N,N-dimethylfuran-2-carboxamide], for which the half-inhibitory concentration (IC50) under setting [2] is 12 nM.

Regarding `Cc1cc(Cl)ccc1OCC(=O)N1CCc2nc3sccn3c2C1c1cc2cccnc2s1` (centres unmarked) [Example 6.14.2, 2-(4-chloro-2-methylphenoxy)-1-(5-(thieno[2,3-b]-pyridin-2-yl)-7,8-dihydrothiazolo[2′,3′:2,3]imidazo[4,5-c]pyridin-6(5H)-yl)ethanone], the 50% inhibitory concentration (IC50) under setting [1] turned out to be 39 nM.

Consider `Cc1nn2c3c(nc2s1)CCN(C(=O)COc1ccc(NS(C)(=O)=O)nc1Cl)C3c1cnc(C(=O)N(C)C)s1` (centres unmarked) [Example 1.34.3, 5-(6-(2-((2-chloro-6-(methylsulfonamido)pyridin-3-yl)oxy)acetyl)-2-methyl-5,6,7,8-tetrahydro-[1,3,4]thiadiazolo [2′,3′:2,3]imidazo[4,5-c]pyridin-5-yl)-N,N-dimethylthiazole-2-carboxamide], for which the concentration for half-maximal inhibition (IC50) under setting [1] was determined as 104 nM.

In turn, `Cc1cnc(C2c3c(nc4sc(C)nn34)CCN2C(=O)COc2ccc(C(=O)N(C)C3CC3)nc2Cl)c(F)c1` (centres unmarked) [Example 1.31.14, 6-chloro-N-cyclopropyl-5-(2-(5-(3-fluoro-5-methylpyridin-2-yl)-2-methyl-7,8-dihydro-[1,3,4]thiadiazolo[2′,3′:2,3]imidazo[4,5-c]pyridin-6(5H)-yl)-2-oxoethoxy)-N-methylpicolinamide] displayed an IC50 under setting [1] of 32 nM.

Under setting [1], `Cc1nn2c3c(nc2s1)CCN(C(=O)COc1cc(F)c(N2CCOCC2)nc1Cl)C3c1ncc(C2CC2)cc1F` (centres unmarked) [Example 1.14.9, 2-((2-chloro-5-fluoro-6-morpholinopyridin-3-yl)oxy)-1-(5-(5-cyclopropyl-3-fluoropyridin-2-yl)-2-methyl-7,8-dihydro-[1,3,4]thiadiazolo[2′,3′:2,3]imidazo[4,5-c]pyridin-6(5H)-yl)ethanone] showed a 50% inhibitory concentration (IC50) of 4 nM.

`CCc1nc(NS(C)(=O)=O)ccc1OCC(=O)N1CCc2nc3sc(C)nn3c2C1c1sccc1F` (centres unmarked) [Example 1.71.2, N-(6-ethyl-5-(2-(5-(3-fluorothiophen-2-yl)-2-methyl-7,8-dihydro-[1,3,4]thiadiazolo[2′,3′:2,3]imidazo[4,5-c]pyridin-6(5H)-yl)-2-oxoethoxy)pyridin-2-yl)methanesulfonamide] returned an IC50 under setting [1] of 7 nM.

Compound `CCc1nc(N2CCCS2(=O)=O)ccc1OCC(=O)N1CCc2nc3sc(C)nn3c2[C@@H]1c1sc(C)nc1C` [Example 1.68.8, (R)-1-(5-(2,4-dimethylthiazol-5-yl)-2-methyl-7,8-dihydro-[1,3,4]thiadiazolo[2′,3′:2,3]imidazo[4,5-c]pyridin-6(5H)-yl)-2-((6-(1,1-dioxidoisothiazolidin-2-yl)-2-ethylpyridin-3-yl)oxy)ethanone] displayed an IC50 under setting [1] of 5 nM.

With `CNC(=O)c1ccc(OCC(=O)N2CCc3nc4sc(C)nn4c3C2c2ccc(Cl)cc2F)c(Cl)n1` (centres unmarked) [Example 1.4.21, 6-chloro-5-(2-(5-(4-chloro-2-fluorophenyl)-2-methyl-7,8-dihydro-[1,3,4]thiadiazolo[2′,3′:2,3]imidazo[4,5-c]pyridin-6(5H)-yl)-2-oxoethoxy)-N-methylpicolinamide], the concentration for half-maximal inhibition (IC50) under setting [1] was found to be 5 nM.

For the compound `Cc1nn2c3c(nc2s1)CCN(C(=O)COc1ccc(C(=O)NC2CC2)nc1C1CC1)C3c1ccc(Cl)cc1F` (centres unmarked) [Example 1.4.55, 5-(2-(5-(4-chloro-2-fluorophenyl)-2-methyl-7,8-dihydro-[1,3,4]thiadiazolo[2′,3′:2,3]imidazo[4,5-c]pyridin-6(5H)-yl)-2-oxoethoxy)-N,6-dicyclopropylpicolinamide], the IC50 under setting [1] amounted to 9 nM.

Consider `Cc1nn2c3c(nc2s1)CCN(C(=O)COc1ccc(C(F)(F)F)cc1Cl)C3c1cc(C(=O)N(C)C)cs1` (centres unmarked) [Example 1.9.3, 5-(6-(2-(2-Chloro-4-(trifluoromethyl)phenoxy)acetyl)-2-methyl-5,6,7,8-tetrahydro-[1,3,4]thiadiazolo[2′,3′:2,3]imidazo[4,5-c]pyridin-5-yl)-N,N-dimethylthiophene-3-carboxamide], for which inhibition under setting [2] was half-maximal at 77 nM (IC50).

Under setting [1], `Cc1nn2c3c(nc2s1)CCN(C(=O)COc1ccc(NS(C)(=O)=O)nc1Cl)C3c1ncc(Cl)cc1F` (centres unmarked) [Example 1.33.6, N-(6-chloro-5-(2-(5-(5-chloro-3-fluoropyridin-2-yl)-2-methyl-7,8-dihydro-[1,3,4]thiadiazolo[2′,3′:2,3]imidazo[4,5-c]pyridin-6(5H)-yl)-2-oxoethoxy)pyridin-2-yl)methanesulfonamide] had an IC50 of 6 nM.

`COC(C)(C)c1ccc(C2c3c(nc4sc(C)nn34)CCN2C(=O)COc2ccc(C(=O)NC3CC3)nc2Cl)c(F)c1` (centres unmarked) [Example 1.81.1, 6-chloro-N-cyclopropyl-5-(2-(5-(2-fluoro-4-(2-methoxypropan-2-yl)phenyl)-2-methyl-7,8-dihydro-[1,3,4]thiadiazolo[2′,3′:2,3]imidazo[4,5-c]pyridin-6(5H)-yl)-2-oxoethoxy)picolinamide]: half-maximal inhibition under setting [1] (IC50) required 27 nM.

Under setting [1], `Cc1nn2c3c(nc2s1)CCN(C(=O)COc1ccc(N2CC(F)(F)C2)nc1Cl)C3c1ncc(Cl)cc1F` (centres unmarked) [Example 1.33.2, 1-(5-(5-chloro-3-fluoropyridin-2-yl)-2-methyl-7,8-dihydro-[1,3,4]thiadiazolo[2′,3′:2,3]imidazo[4,5-c]pyridin-6(5H)-yl)-2-((2-chloro-6-(3,3-difluoroazetidin-1-yl)pyridin-3-yl)oxy)ethanone] returned a half-inhibitory concentration (IC50) of 4 nM.

`CCOC(=O)c1csc(C2c3c(nc4sc(C)nn34)CCN2C(=O)COc2ccc(C(F)(F)F)nc2Cl)n1` (centres unmarked) [Example 1.27.2, Ethyl 2-(6-(2-((2-chloro-6-(trifluoromethyl)pyridin-3-yl)oxy)acetyl)-2-methyl-5,6,7,8-tetrahydro-[1,3,4]thiadiazolo [2′,3′:2,3]imidazo[4,5-c]pyridin-5-yl)thiazole-4-carboxylate] gave a half-maximal inhibitory concentration (IC50) under setting [1] of 500 nM.

For `Cc1ccc(C2c3c(nc4sc(CF)nn34)CCN2C(=O)COc2ccc(NS(C)(=O)=O)nc2Cl)c(F)c1` (centres unmarked) [Example 7.3.1, N-(6-chloro-5-(2-(5-(2-fluoro-4-methylphenyl)-2-(fluoromethyl)-7,8-dihydro-[1,3,4]thiadiazolo[2′,3′:2,3]imidazo[4,5-c]pyridin-6(5H)-yl)-2-oxoethoxy)pyridin-2-yl)methanesulfonamide], it took 8 nM to reach half-maximal inhibition under setting [1] (IC50).
